{"source": "patent US20230096663A1", "about": "“FARNESOID X RECEPTOR MODULATING COMPOUNDS AND METHODS OF USING THE SAME” (Inorbit Therapeutics AB, priority 2020, published 2023)", "key": {"[1]": {"experiment": "Metabolism in human microsomes", "format": "in vitro ADME", "conditions": "37° C.", "experimental": "Microsomal mixes (247.5 μL) of human microsomes (1250 μL, 4 mg/ml), potassium phosphate buffer (1250 μL), alamethecin (12.5 μL, 5 mg/ml) and cofactors Nicotinamide Adenine Dinucleotide Phosphate NADPH (1250 μL, 4 mM)/uridine 5′-diphospho-glucuronic acid UDPGA (1250 μL, 4 mM) or UDPGA only were loaded onto a shaker for 10 minutes. The test compound (2.5 μL, 100 μM) was then separately added to both microsomal mixes (i.e., one mix with NADPH and one mix without NADPH), incubated at 37° C. and sampled at predetermined time points. Analysis was performed using a AB SCIEX QTRAP 4500 LC-MS/MS, a Kinetex C18, 50*4.6 mm, 5 μm column and eluting with 10 mM Ammonium Acetate/Methanol.\nTable 3 summarizes the % of compound remaining after 45 minutes of incubation with human microsomes either in the presence of co-factors UDPGA and NADPH or UDPGA only."}, "STAM model NASH mice": {"system": "STAM model NASH mice", "experiment": "In-vivo efficacy in STAM model of non-alcoholic steatohepatitis", "conditions": "oral once daily for three weeks, 0.3, 1 or 3 mg/kg", "experimental": "NASH was induced in male mice by a single subcutaneous injection of 200 μg streptozotocin (STZ, Sigma-Aldrich, USA) solution 2 days after birth and feeding with high fat diet (HFD, 57 kcal % fat, Cat #HFD32, CLEA Japan, Inc., Japan) after 4 weeks of age. NASH model mice were randomized into groups of 8 mice at 6 weeks of age based on their body weight the day before the start of treatment. The compound of Example 2 was then administered orally in a volume of 10 ml/kg at dose levels 0.3 mg/kg, 1 mg/kg and 3 mg/kg once daily for 3 weeks. […] NAFLD Activity score (NAS) was calculated according to the criteria of Kleiner (Kleiner D E. et al., Hepatology, 2005; 41:1313). […] For quantitative analysis of fibrosis area, bright field images of Sirius red-stained sections were captured around the central vein using a digital camera (DFC295; Leica, Germany) at 200-fold magnification, and the positive areas in 5 fields/section were measured using ImageJ software (National Institute of Health, USA). […] The score can be used to quantify changes in NAFLD during disease progression and on administration of potential therapeutics. In order to quantify the degree of fibrosis Sirius red stained liver sections were used to visualise and study collagen distribution."}, "[2]": {"system": "FXR related genes (BSEP, SHP) in primary human hepatocytes", "experiment": "Gene expression in human primary hepatocytes (BSEP, SHP)", "format": "cell-based", "conditions": "24 hours incubation", "experimental": "The test compound was dissolved in buffer to give a 10 mM stock solution. The compound was serially diluted to the desired concentrations and then incubated with human primary hepatocytes for 24 hours at 37° C. in a CO2 incubator. After incubation, the media was removed and the RNA harvested using the Trizol-CHCl3 method and quantified using Nano drop. The RNA was then Reverse Transcribed to cDNA using a superscript vilo cDNA synthesis kit. The cDNA with respective Taqman primers, master mix are then amplified using quantitative RT-PCR system. […] The compounds of examples 2 and 3 upregulate FXR related and disease relevant genes on incubation with primary human hepatocytes. […] It is a uni-directional, ATP-dependent efflux transporter that plays an important role in the elimination of bile salts from the hepatocyte into the bile canaliculi for export into the gastrointestinal tract. FXR also induces the expression of small heterodimer partner (SHP) which controls a complex set of genes in multiple metabolic pathways. It reduces the expression of CYP7A1, a liver-specific enzyme that catalyzes the first and rate-limiting step in one of the two pathways for bile acid biosynthesis."}, "[3]": {"system": "HFHC fed male C57BL/6 mice", "experiment": "In-vivo efficacy in high fat high cholesterol diet (HFHC) fed male C57BL/6 mice", "conditions": "oral, 3 mg/kg BID, 3 mg/kg QD and 10 mg/kg BID, after 28 days", "method": "C57BL/6J male mice were purchased at the age of 8 weeks. After an acclimation period of 1 week, animals were maintained on high fat high cholesterol diet (Research diets) with 60% kcal from fat plus 0.5% (w/w) extra cholesterol (Research diet, D02051401) for a period of 4 weeks. Age matched control animals (n=6) were maintained on normal chow. Mice were dosed with vehicle, test compounds and GW4064 morning (7.00 AM) and evening (5:00 PM) from day 0 to 27. At 28th day, animals were dosed at 7:00 AM and kept on fasting for next 4 hours before blood and tissues collection. Plasma samples separated from collected blood were stored at −20° C. immediately for estimation analysis. The samples were analyzed using the Siemens Dimension RxL Max Clinical chemistry analyzer.\nRight liver lobe was used for the test compounds exposure, triglyceride and cholesterol estimation. Liver tissues were dissected, weighed and snap frozen and stored at −80° C. for further analysis of hepatic triglyceride, cholesterol and compound exposure. In brief, stored tissues were thawed to room temperature and triglycerides were extracted by homogenizing 25 mg of liver tissues in 1 ml of 5% Triton X100 (Lot No. 61K01741-Sigma Aldrich) in water. Homogenized tissues were slowly heated to 80° C. in water bath for 5 minutes. The samples were cooled down and again heated to solubilize all the triglycerides into solution. The samples were centrifuged for 5 minutes at 4000 RPM and supernatant was collected for quantification^3 using commercially available kit from ERBA (Lot No. B061832).\nHomogenized samples were centrifuge at 13000 g for 10 minutes to remove insoluble material. The organic phase was separated into new tube and air dried at 50° C. to remove chloroform. Thereafter, samples were vacuumed for 30 minutes to remove residue organic solvent. Dried lipids were dissolved in 200 μL of cholesterol assay buffer (provided with Sigma cholesterol assay kit Lot No. B2J210603V), sonicated for 20 minutes and vortexed until mixture was homogenous as mentioned in kit protocol. Samples were diluted with cholesterol assay buffer at (1:10) ratio to fit in standard curve and finally 50 μL of diluted samples were used for the assay.\nCompound levels were also measured in the plasma and liver to understand its distribution profile."}}}
{"smiles": "O=S([O-])c1cc(F)c2nc(N3[C@@H]4CC[C@H]3C[C@@H](OCc3c(-c5ccccc5OC(F)(F)F)noc3C3CC3)C4)sc2c1.[Na+]", "note": "[Example 2, Sodium 2-(3-((5-cyclopropyl-3-(2-(trifluoromethoxy)phenyl)isoxazol-4-yl)methoxy)-8-azabicyclo[3.2.1]octan-8-yl)-4-fluorobenzo[d]thiazole-6-sulfinate]", "values": [{"measurement": "% remaining @ 45 mins of incubation with UDPGA", "setting": "[1]; co-factor UDPGA only", "result": 94, "unit": "%"}, {"measurement": "% remaining @ 45 mins of incubation with UDPGA and NADPH", "setting": "[1]; co-factors UDPGA and NADPH", "result": 52, "unit": "%"}, {"measurement": "Fibrosis area (Sirius red positive area)", "setting": "STAM model NASH mice", "result": "Significant reductions"}, {"measurement": "NAFLD Activity score (NAS)", "setting": "STAM model NASH mice", "result": "Significant reductions"}, {"measurement": "Expression of FXR related and disease relevant genes (BSEP, SHP)", "setting": "[2]", "result": "upregulate"}, {"measurement": "Cholesterol levels in the liver", "setting": "[3]", "result": "reductions"}, {"measurement": "Cholesterol levels in the plasma", "setting": "[3]", "result": "reductions"}, {"measurement": "Liver triglycerides", "setting": "[3]", "result": "reductions"}]}
